Source: patent US20140107109A1, “AMINO-DIHYDROTHIAZINE AND AMINO-DIOXIDO DIHYDROTHIAZINE COMPOUNDS AS BETA-SECRETASE ANTAGONISTS AND METHODS OF USE” (Amgen Inc., priority 2012, published 2014)
Read-outs that look alike come from different tables or passages of the source.

Columns and labels:
[1] = system: Aβ40 in conditioned medium of cells stably expressing Amyloid Precursor Protein (APP); assay: In vitro BACE cell-based assay (HEK cell assay), Aβ40 sandwich ELISA; settings: Homo sapiens, HEK293
Method: In Vitro BACE Cell-Based Assay
The cell-based assay measures inhibition or reduction of Aβ40 in conditioned medium of test compound treated cells expressing amyloid precursor protein.
Cells stably expressing Amyloid Precursor Protein (APP) were plated at a density of 40K cells/well in 96 well plates (Costar). The cells were cultivated for 24 hours at 37C. and 5% CO2 in DMEM supplemented with 10% FBS. The test compounds were then added to cells in 10-point dose response concentrations with the starting concentration being either 100 μM or 10 μM. The compounds were diluted from stock solutions in DMSO and the final DMSO concentration of the test compounds on cells was 0.1%. After 24 h of incubation with the test compounds the supernatant conditioned media was collected and the Aβ 40 levels were determined using a sandwich ELISA. The IC50 of the compound was calculated from the percent of control or percent inhibition of Aβ 40 as a function of the concentration of the test compound.
The sandwich ELISA to detect Aβ 40 was performed in 96 well microtiter plates, which were pre-treated with goat anti-rabbit IgG (Pierce). The capture and detecting antibody pair that were used to detect Aβ 40 from cell supernatants were affinity purified pAb40 (Biosource) and biotinylated 6E10 (Signet Labs Inc.), respectively. The optimal concentration for the pAb40 antibody was 3 μg/ml in Superblock/TBS (Pierce) that was supplemented with 0.05% Tween 20 (Sigma). Optimal concentration for the detection antibody 6E10-biotinylated was 0.5 μg/ml in Superblock/TBS (Pierce) that had been supplemented with 2% normal goat serum and 2% normal mouse serum.
Cellular supernatants were incubated with the capture antibody for 3 h at 4° C., followed by 3 wash steps in TBS-tween (0.05%). The detecting antibody incubation was for 2 h at 4° C., again followed by the wash steps as described previously. The final readout of the ELISA is Time-Resolved Fluorescence (counts per minute) using Delfia reagents Streptavidin-Europium and Enhancement solutions (Perkin Elmer) and the Victor 2 multilabel counter (Perkin Elmer).

[2] = target: T1, Cathepsin D (Cat D) (Homo sapiens, UniProt P07339); assay: In vitro enzymatic Cathepsin D (Cat D) FRET assay; assay type: biochemical; settings: read-out: CatD IC50
T1 construct: Recombinant Cat D was expressed in CHO cells; made in house; host or cells: CHO cells
Method: In Vitro Enzymatic Cathepsin D (Cat D) FRET (Fluorescence Resonance Energy Transfer) Assay Recombinant Cat D was expressed in CHO cells. […] The Cat D enzyme (9 nM) is pre-incubated for one hour with inhibitors, typically in about 1 uL of DMSO according to a serial dilution, is added thereto. […] The FRET assay is terminated with by addition of Tris buffer, which raises the pH to neutrality, and the fluorescence is determined. The FRET substrate is a peptide with commercially available fluorophore and quencher, on opposite sides of the BACE cleavage site. The Cat D substrate peptide sequence is based on sequence #1 of Table 1 from Gulnik et al. […] Alternatively, a Cat D assay may also be run according to the procedure described in the article, Characterization of new fluorgenic substrates for the rapid and sensitive assay of cathepsin E and cathepsin D, J. Biochem., 125:1137, 1999. In addition, the cathepsin D and cathepsin E assays are described in PCT publication WO2011069934. This WIPO publication describes BACE inhibitor compounds having an amide linker connecting two aromatic groups with extremely poor cathepsin D and/or cathepsin E inhibitory activity (see Table 2). Where available, the in-vitro Cat D FRET assay data for each of the Examples, conducted by the first procedure, is provided.

[3] = target: Beta Secretase enzyme (BACE1) (Homo sapiens, UniProt P56817); assay: In vitro enzymatic BACE FRET assay; assay type: biochemical; settings: read-out: BACE1 FRET assay IC50
Method: In Vitro Enzymatic BACE FRET (Fluorescence Resonance Energy Transfer) Assay (Enzyme Assay Data in the Example Tables I and II)
The assay buffer used in this screen is 0.05 M acetate, pH 4.2, 10% DMSO final, 100 uM genapol (which is a nonionic detergent, below its Critical Micelle Concentration). […] This assay is effectively started by the addition of FRET substrate (50 nM) and the combination is incubated for one hour. The FRET assay is terminated with by addition of Tris buffer, which raises the pH to neutrality, and the fluorescence is determined. The FRET substrate is a peptide with commercially available fluorophore and quencher, on opposite sides of the BACE cleavage site. Proteolytic cleavage of the FRET substrate releases quenching of fluorescence (excitation […] and […]).

Beta Secretase enzyme (BACE1), sequence (P56817 46-501): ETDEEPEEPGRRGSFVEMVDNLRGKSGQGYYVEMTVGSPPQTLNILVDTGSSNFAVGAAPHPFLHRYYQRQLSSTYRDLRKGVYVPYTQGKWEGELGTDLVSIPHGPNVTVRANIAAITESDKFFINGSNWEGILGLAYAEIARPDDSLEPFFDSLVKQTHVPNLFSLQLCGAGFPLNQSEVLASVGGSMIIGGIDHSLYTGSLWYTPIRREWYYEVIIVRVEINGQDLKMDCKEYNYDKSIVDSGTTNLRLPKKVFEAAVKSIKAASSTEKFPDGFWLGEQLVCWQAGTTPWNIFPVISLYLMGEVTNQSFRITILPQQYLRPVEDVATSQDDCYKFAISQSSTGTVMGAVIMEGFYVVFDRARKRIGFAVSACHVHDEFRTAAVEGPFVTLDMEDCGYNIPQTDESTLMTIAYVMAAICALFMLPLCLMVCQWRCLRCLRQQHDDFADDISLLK
T1 sequence (P07339 65-412, species assumed): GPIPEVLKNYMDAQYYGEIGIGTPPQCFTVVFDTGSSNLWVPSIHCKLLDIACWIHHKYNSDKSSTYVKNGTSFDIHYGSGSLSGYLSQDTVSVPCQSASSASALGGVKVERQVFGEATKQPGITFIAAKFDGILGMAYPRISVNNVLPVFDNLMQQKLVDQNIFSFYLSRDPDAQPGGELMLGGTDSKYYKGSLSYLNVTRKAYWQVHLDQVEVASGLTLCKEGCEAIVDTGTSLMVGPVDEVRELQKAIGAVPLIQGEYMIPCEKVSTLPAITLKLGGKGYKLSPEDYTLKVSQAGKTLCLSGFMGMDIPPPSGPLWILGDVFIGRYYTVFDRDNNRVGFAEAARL

IC50 ([1]; Aβ40, 24 h incubation) [µM] | IC50 [2] [µM] | SMILES | other results
> 10 |  | COc1cnc(C(=O)Nc2ccc(F)c(C3(C(F)(F)F)CS(=O)(=O)C(C)(C)C(N)=N3)c2)cn1 (stereo in doubt) [Example 34, N-(3-((3R)-5-amino-6,6-dimethyl-1,1-dioxido-3-(trifluoromethyl)-3,6-dihydro-2H-1,4-thiazin-3-yl)-4-fluorophenyl)-5-methoxy-2-pyrazinecarboxamide] | 
0.0022 | > 400 | COc1cnc(C(=O)Nc2ccc(F)c([C@]3(C)CS(=O)(=O)C(C)(C)C(N)=N3)c2)cn1 [Example 17, N-(3-((3R)-5-amino-3,6,6-trimethyl-1,1-dioxido-3,6-dihydro-2H-1,4-thiazin-3-yl)-4-fluorophenyl)-5-methoxy-2-pyrazinecarboxamide] | 
0.0014 | 240 | CC1(C)C(N)=N[C@](C)(c2cc(NC(=O)c3ccc(Cl)cn3)ccc2F)CS1(=O)=O [Example 19, N-(3-((3R)-5-amino-3,6,6-trimethyl-1,1-dioxido-3,6-dihydro-2H-1,4-thiazin-3-yl)-4-fluorophenyl)-5-chloro-2-pyridinecarboxamide] | 
6.86 | 182 | COc1cc(C)ccc1Oc1ccc(F)c([C@]2(C)CS(=O)(=O)C(C)(C)C(N)=N2)c1 [Example 97, (R)-5-amino-3-(2-fluoro-5-(2-methoxy-4-methylphenoxy)phenyl)-3,6,6-trimethyl-3,6-dihydro-2H-1,4-thiazine 1,1-dioxide] | 
 | 112 | CC1(C)C(N)=N[C@](C)(c2cc(NC(=O)c3nn(C(F)F)cc3Cl)ccc2F)CS1(=O)=O [Example 106, (R)—N-(3-(5-amino-3,6,6-trimethyl-1,1-dioxido-3,6-dihydro-2H-1,4-thiazin-3-yl)-4-fluorophenyl)-4-chloro-1-(difluoromethyl)-1H-pyrazole-3-carboxamide] | IC50 [3]: 0.00174 µM
 | 81.1 | CC1(C)C(N)=N[C@](C)(c2cc(NCc3nn(C(F)F)cc3Cl)ccc2F)CS1(=O)=O [Example 107, (R)-5-amino-3-(5-(((4-chloro-1-(difluoromethyl)-1H-pyrazol-3-yl)methyl)amino)-2-fluorophenyl)-3,6,6-trimethyl-3,6-dihydro-2H-1,4-thiazine 1,1-dioxide] | IC50 ([3]; average IC50, enzyme assay): 0.00227 µM
 | 184 | CC1(C)C(N)=N[C@](C)(c2cc(OCc3ccccc3)ccc2F)CS1(=O)=O [Example 301, (5R)-5-(5-(benzyloxy)-2-fluorophenyl)-2,2,5-trimethyl-5,6-dihydro-2H-1,4-thiazin-3-amine 1,1-dioxide] | IC50 ([1]; average IC50, HEK cell assay): 1.06 µM

The next lines start with the compound.

SMILES | IC50 ([1]; Aβ40, 24 h incubation) [µM] | IC50 [2] [µM] | other results
COc1cnc(C(=O)Nc2ccc(F)c([C@]3(C)CSCC(N)=N3)c2)cn1 [Example 43, (R)—N-(3-(5-amino-3-methyl-3,6-dihydro-2H-1,4-thiazin-3-yl)-4-fluorophenyl)-5-methoxypyrazine-2-carboxamide] | 0.007 |  | 
COc1cnc2c(Nc3cnc(F)c([C@]4(C)CS(=O)(=O)C(C)(C)C(N)=N4)c3)nccc2c1 [Example 66, N-(5-((3R)-5-amino-3,6,6-trimethyl-1,1-dioxido-3,6-dihydro-2H-1,4-thiazin-3-yl)-6-fluoro-3-pyridinyl)-3-methoxy-1,7-naphthyridin-8-amine] | 0.0067 |  | 
C[C@@]1(c2cc(Br)ccc2F)CS(=O)(=O)C2(CC(O)C2)C(N)=N1 (stereo partly drawn) [Example 112, (R)-9-amino-7-(5-bromo-2-fluorophenyl)-2-hydroxy-7-methyl-5-thia-8-azaspiro[3.5]non-8-ene 5,5-dioxide] |  | 37.3 | IC50 ([3]; average IC50, enzyme assay): 1.19 µM
C[C@@]1(c2cc(Br)ccc2F)CS(=O)(=O)C2(CCC2)C(N)=N1 [Example 113, (R)-9-amino-7-(5-bromo-2-fluorophenyl)-7-methyl-5-thia-8-azaspiro[3.5]non-8-ene 5,5-dioxide] |  | 30 | IC50 ([3]; average IC50, enzyme assay): 4.05 µM
CC1(C)C(N)=N[C@@]2(c3cc(Nc4nccc5cc(Cl)cnc45)ccc3F)C[C@H]2S1(=O)=O [Example 183, (1R,6R)-4-amino-6-(5-((3-chloro-1,7-naphthyridin-8-yl)amino)-2-fluorophenyl)-3,3-dimethyl-2-thia-5-azabicyclo[4.1.0]hept-4-ene 2,2-dioxide] |  | 87.9 | IC50 ([1]; average IC50, cell assay): 4.74 µM
CC1(C)C(N)=NC2(c3cc(Br)ccc3F)COCC2S1(=O)=O (stereo not shown) [Example 185, 3-amino-4a-(5-bromo-2-fluorophenyl)-2,2-dimethyl-4a,5,7,7a-tetrahydro-2H-furo[3,4-b][1,4]thiazine 1,1-dioxide] |  |  | IC50 ([1]; average IC50, cell assay): > 15.6 µM
CC1(C)C(N)=N[C@@]2(c3cc(Br)ccc3F)COC[C@H]2S1(=O)=O [Example 185a, (4aS,7aS)-3-amino-4a-(5-bromo-2-fluorophenyl)-2,2-dimethyl-4a,5,7,7a-tetrahydro-2H-furo[3,4-b][1,4]thiazine 1,1-dioxide] |  |  | IC50 ([1]; average IC50, cell assay): > 15.6 µM
CC1(C)C(N)=N[C@]2(c3cc(Br)ccc3F)COC[C@@H]2S1(=O)=O [Example 185b, (4aR,7aR)-3-amino-4a-(5-bromo-2-fluorophenyl)-2,2-dimethyl-4a,5,7,7a-tetrahydro-2H-furo[3,4-b][1,4]thiazine 1,1-dioxide] |  |  | IC50 ([1]; average IC50, cell assay): > 15.6 µM
CC1(C)C(N)=N[C@@]2(c3cc(N)ccc3F)COC[C@H]2S1(=O)=O [Example 185c, (4aS,7aS)-3-amino-4a-(5-amino-2-fluorophenyl)-2,2-dimethyl-4a,5,7,7a-tetrahydro-2H-furo[3,4-b][1,4]thiazine 1,1-dioxide] |  |  | IC50 ([1]; average IC50, HEK cells): > 15.6 µM
CC1(C)C(N)=N[C@]2(c3cc(N)ccc3F)COC[C@@H]2S1(=O)=O [Example 185d, (4aR,7aR)-3-amino-4a-(5-amino-2-fluorophenyl)-2,2-dimethyl-4a,5,7,7a-tetrahydro-2H-furo[3,4-b][1,4]thiazine 1,1-dioxide] |  |  | IC50 ([1]; average IC50, HEK cells): > 15.6 µM
CC1(C)C(N)=N[C@](C)(c2cc(Nc3nccc4nc(C(F)(F)F)cnc34)ccc2F)C(F)S1(=O)=O (stereo partly drawn) [Example 227, N-(3-((3R)-5-amino-2-fluoro-3,6,6-trimethyl-1,1-dioxido-3,6-dihydro-2H-1,4-thiazin-3-yl)-4-fluorophenyl)-2-(trifluoromethyl)pyrido[3,4-b]pyrazin-5-amine] |  | > 44.4 | IC50 ([3]; average IC50, enzyme assay): 0.00659 µM
CC1(C)C(N)=N[C@](C)(c2cc(Nc3ncnc4cc(Cl)cnc34)ccc2F)C(F)S1(=O)=O (stereo partly drawn) [Example 228, N-(3-((3R)-5-amino-2-fluoro-3,6,6-trimethyl-1,1-dioxido-3,6-dihydro-2H-1,4-thiazin-3-yl)-4-fluorophenyl)-7-chloropyrido[3,2-d]pyrimidin-4-amine] |  | 58.9 | IC50 ([3]; average IC50, enzyme assay): 0.00328 µM
CC1(C)C(N)=N[C@](CF)(c2cc(Nc3nncc4cc(Cl)ccc34)ccc2F)CS1(=O)=O [Example 450, N-(3-((3S)-5-amino-3-(fluoromethyl)-6,6-dimethyl-1,1-dioxido-3,6-dihydro-2H-1,4-thiazin-3-yl)-4-fluorophenyl)-6-chloro-1-phthalazinamine] |  |  | IC50 ([1]; average IC50, cell assay): 0.7 µM
